# Assay results from patent US7238724B2, “Pharmaceutical compositions as inhibitors of dipeptidyl peptidase-IV (DPP-IV)” (Abbott Laboratories, priority 2004, dated 2007).
# How the values were obtained:
# [1] = test system: Normal mice (C57/BL6 strain); assay: acute oral glucose tolerance test (OGTT); type: in vivo; settings: OGTT 5 gm/kg
# Procedure: Compounds of the present invention were evaluated for their ability to treat diabetes using an acute oral glucose tolerance test (OGTT) as follows: Normal mice (C57/BL6 strain), 6-7 weeks of age, on a normal chow diet, were fasted for 3 hrs. A baseline tail snip blood sample was taken to measure glucose levels (Precision PCx glucose meter, Abbott Laboratories, Abbott Park, Ill.) at the beginning of the experiment. Immediately after this baseline sample, compounds of the present invention (or placebo) were dosed orally. One hour later, a tail snip blood glucose measurement was taken, immediately followed by an oral glucose dose (OGTT, 5 gm/kg). The glucose excursion was followed for 2 hours with samples taken at 10, 20, 30, 60 and 120 minutes post OGTT. These timed glucose data were used to construct a glucose excursion curve, from which an area under the glucose curve (AUGC) was determined. The data reported in Table 2 is the baseline-adjusted area under the glucose curve (δAUGC) for drug and control groups.
# DPP8 = DPP8 (Homo sapiens, UniProt Q6V1X1); assay: DPP8 inhibitory constant (Table 1 selectivity comparison); type: biochemical
# Chain of DPP8 (Q6V1X1 whole entry, species assumed): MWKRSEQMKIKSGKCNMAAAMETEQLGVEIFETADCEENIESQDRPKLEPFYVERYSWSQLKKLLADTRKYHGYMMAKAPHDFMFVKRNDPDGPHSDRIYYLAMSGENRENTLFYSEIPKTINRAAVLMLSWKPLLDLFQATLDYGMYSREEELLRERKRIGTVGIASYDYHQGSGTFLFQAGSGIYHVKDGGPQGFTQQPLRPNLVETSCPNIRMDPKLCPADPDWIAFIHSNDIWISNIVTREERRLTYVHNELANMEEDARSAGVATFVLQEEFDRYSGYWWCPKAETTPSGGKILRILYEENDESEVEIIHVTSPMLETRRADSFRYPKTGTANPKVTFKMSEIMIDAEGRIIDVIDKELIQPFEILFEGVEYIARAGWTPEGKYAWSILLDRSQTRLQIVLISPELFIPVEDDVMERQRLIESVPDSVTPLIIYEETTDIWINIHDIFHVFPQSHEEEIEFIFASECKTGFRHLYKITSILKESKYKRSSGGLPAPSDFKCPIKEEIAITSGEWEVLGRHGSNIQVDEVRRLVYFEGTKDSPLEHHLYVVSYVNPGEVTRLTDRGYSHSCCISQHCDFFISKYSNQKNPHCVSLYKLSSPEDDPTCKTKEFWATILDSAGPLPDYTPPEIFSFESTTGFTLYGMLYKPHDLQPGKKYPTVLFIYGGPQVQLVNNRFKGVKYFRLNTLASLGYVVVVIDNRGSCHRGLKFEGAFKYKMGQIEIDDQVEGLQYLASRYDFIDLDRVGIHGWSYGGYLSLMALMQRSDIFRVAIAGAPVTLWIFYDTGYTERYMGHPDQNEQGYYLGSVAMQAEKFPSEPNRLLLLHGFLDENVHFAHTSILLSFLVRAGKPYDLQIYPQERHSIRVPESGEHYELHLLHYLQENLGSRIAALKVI
# DPP9 = DPP9 (Homo sapiens, UniProt Q86TI2); assay: DPP9 inhibitory constant (Table 1 selectivity comparison); type: biochemical
# Chain of DPP9 (Q86TI2 whole entry, species assumed): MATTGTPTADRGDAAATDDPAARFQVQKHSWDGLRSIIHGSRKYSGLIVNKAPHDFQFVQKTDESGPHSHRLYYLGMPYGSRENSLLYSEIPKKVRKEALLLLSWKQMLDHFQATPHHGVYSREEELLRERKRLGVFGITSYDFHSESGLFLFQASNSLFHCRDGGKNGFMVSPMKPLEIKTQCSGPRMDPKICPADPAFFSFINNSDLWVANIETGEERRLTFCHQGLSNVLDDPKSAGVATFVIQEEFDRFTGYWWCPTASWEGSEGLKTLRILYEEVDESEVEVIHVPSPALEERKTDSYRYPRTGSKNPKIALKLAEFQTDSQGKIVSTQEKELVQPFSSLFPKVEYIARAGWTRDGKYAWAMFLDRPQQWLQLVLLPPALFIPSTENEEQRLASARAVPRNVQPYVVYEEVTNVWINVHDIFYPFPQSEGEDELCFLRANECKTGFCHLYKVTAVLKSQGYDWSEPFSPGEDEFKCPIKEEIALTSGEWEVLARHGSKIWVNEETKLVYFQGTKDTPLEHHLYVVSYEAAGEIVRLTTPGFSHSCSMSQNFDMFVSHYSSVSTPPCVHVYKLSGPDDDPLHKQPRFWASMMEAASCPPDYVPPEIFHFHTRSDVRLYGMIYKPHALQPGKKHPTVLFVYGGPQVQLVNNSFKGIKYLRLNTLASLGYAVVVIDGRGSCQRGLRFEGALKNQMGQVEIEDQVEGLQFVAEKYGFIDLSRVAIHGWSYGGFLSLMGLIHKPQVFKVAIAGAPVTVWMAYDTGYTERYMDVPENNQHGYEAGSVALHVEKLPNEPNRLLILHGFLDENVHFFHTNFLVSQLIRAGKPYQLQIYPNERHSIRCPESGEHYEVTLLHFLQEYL
Ki (DPP8) [µM],Ki (DPP9) [µM],Structure (SMILES),"δ AUGC, change versus Control ([1]; 1.0 mg/kg dosed orally) [%]","δ AUGC, change versus Control ([1]; 3.0 mg/kg dosed orally) [%]"
> 30,–,"C#C[C@H]1CC[C@@H](C#N)N1C(=O)CN[C@H]1CC[C@H](Oc2ccc(C#N)cn2)CC1 (relative stereo) [Compound 3, (2S,5R)-5-ethynyl-1-{N-(4-trans(5-cyano-pyridin-2-yloxy)cyclohexyl)glycyl}pyrrolidine-2-carbonitrile]",−39,−54
> 100,> 100,"CC(C)(C)NCC(=O)N1[C@H](C#N)CC[C@@H]1C#N [Compound 9, (2R,5S)-1-[(tert-butylamino)acetyl]pyrrolidine-2,5-dicarbonitrile]",–,–
